Experimental data published in US9732078B2, “Therapeutic use of imidazopyridine derivatives” (SANOFI, priority 2012, dated 2017).
Structures can show the parent of a compound that is named as a salt.

What was measured:
[1] = Cytotoxic effect: percentage of permeabilized (very fluorescent, Hoechst 33342) TCC97-7 cells; assay type: cell-based; details: human, read-out: Cytotoxicity (% of permeable cells)
Protocol: (§1) In parallel to their antiproliferative capacity, the potential cytotoxic effect of the FGF-R antagonists is measured by means of quantifying the number of cells of which the membranes are permeabilized. The appearance of pores in the plasma membrane of the cells corresponds to a state of cell death which enables the Hoechst 33342 to penetrate more easily into the cell. This is reflected by a very strong increase in the amount of fluorescence detected in the nuclei. The percentage of cells in a state of cell death is calculated by the ratio between the number of very fluorescent nuclei to the total number of nuclei, multiplied by 100. The observations are carried out in the same way as the quantification of the nuclei for the cell proliferation.

[2] = test system: TCC97-7 bladder cancer cells carrying the Ser249Cys mutation of FGF receptor 3; assay: Reduction of intracellular ATP content of TCC97-7 cells (Cell Titer-Glo, 3 days, serum-supplemented medium); assay type: cell-based; details: TCC97-7 cells in presence of serum; for inhibition at 0.1 µM / inhibition at 1 µM / inhibition at 10 µM: 72 h, read-out: Inhibition of the amount of intracellular ATP (%)
Protocol: Evaluation of the Capacity of the FGF-R Antagonists to Reduce the ATP Content of TCC97-7 Bladder Cancer Cells Carrying the Ser249Cys Mutation of FGF Receptor 3, Cultured in a Serum-Supplemented Medium
To do this, 3000 cells are seeded in 50 μl of complete medium (Ham-F/12, 1% FCS, […], non-essential amino acids, sodium pyruvate, 1% insulin/transferrin/selenium, hydrocortisone). 16 hours later, 50 μl of the various compounds are added at 0.2, 2, 20 and 60 μM after dilution in complete culture medium in order to obtain final concentrations of 0.1, 1, 10 and 30 μM. After 3 days, the ATP content of the cells is measured using the Cell Titer-Glo® Luminescent Cell Viability Assay kit (Promega, France) according to the supplier's recommendations. The percentage inhibition of the amount of intracellular ATP is calculated by considering the ATP content of the cells cultured in the absence of antagonist to be 0% inhibition. 100% inhibition would correspond to a well in which the ATP content is zero.

[3] = test system: TCC97-7 bladder cancer tumour cells carrying the Ser249Cys mutation of FGF receptor 3; assay: Inhibition of serum-induced proliferation of TCC97-7 bladder cancer cells (count of Hoechst 33342-labelled nuclei after 3 days); assay type: cell-based; details: TCC97-7 cells in presence of serum; for inhibition at 0.01 µM / inhibition at 0.1 µM / inhibition at 1 µM / inhibition at 10 µM: 72 h
Protocol: To do this, 2000 cells are seeded in the morning in 50 μl of complete medium (Ham-F/12, 1% FCS, 2 mM glutamine, non-essential amino acids, sodium pyruvate, 1% insulin/transferrin/selenium, hydrocortisone). In the evening, 50 μl of the various compounds are added at 0.02, 0.2, 2 or 20 μM after dilution in complete culture medium in order to obtain final concentrations of 0.01, 0.1, 1 and 10 μM. After 3 days, the cell proliferation is evaluated by measuring the number of nuclei at the bottom of each well corresponding to a number of cells. The nuclei are detected by means of labelling with Hoechst 33342 (Invitrogen, ref H3570). 100 μl of Hoechst 33342 diluted to 1/5000th in PBS are added to each well for 30 min at ambient temperature on non-fixed cells. The nuclei are detected by fluorescence at 350 nm at ×2 magnification with an Operetta (PerkinElmer) using the Acapella (PerkinElmer) imaging software and analysed using the Columbus (PerkinElmer) image analysis software. The percentage inhibition of the cell proliferation is calculated by considering the number of nuclei present in the wells in which the TCC97-7 cells are cultured in the absence of FGF-R antagonists to be 0% inhibition. 100% inhibition would correspond to a well no longer containing cells.

[4] = test system: TCC97-7 bladder cancer tumour cells carrying the Ser249Cys mutation of FGF receptor 3; assay: Cytotoxic effect: percentage of permeabilized (very fluorescent, Hoechst 33342) TCC97-7 cells; assay type: cell-based; details: 3 days
Protocol: as §1

Structure (SMILES) | melting point [°C] | cytotoxicity at 3 days, 0.01 µM [1] [%] | cytotoxicity at 3 days, 0.1 µM [1] [%] | cytotoxicity at 3 days, 1 µM [1] [%] | cytotoxicity at 3 days, 10 µM [1] [%] | inhibition at 0.1 µM ([2]; 0.1 μM) [%] | inhibition at 1 µM ([2]; 1 μM) [%] | inhibition at 10 µM ([2]; 10 μM) [%] | inhibition at 0.01 µM ([3]; 0.01 μM) [%] | inhibition at 0.1 µM ([3]; 0.1 μM) [%] | inhibition at 1 µM ([3]; 1 μM) [%] | inhibition at 10 µM ([3]; 10 μM) [%] | other results
Cl.Cn1c(=O)n(Cc2ccc(F)cc2)c(=O)c2cc(C(=O)c3nc(-c4cccc(C(=O)OCCN5CCOCC5)c4)c4ccccn34)ccc21 | 215 |  |  |  |  |  |  |  |  |  |  |  | 
Cn1c(=O)n(Cc2ccc(F)cc2)c(=O)c2cc(C(=O)c3nc(-c4cccnc4)c4ccccn34)ccc21 (as salt: hydrochloride) [compound 112, 3-(4-Fluorobenzyl)-1-methyl-6-[(1-pyridin-3-ylimidazo[1,5-a]pyridin-3-yl)carbonyl]quinazoline-2,4(1H, 3H)-dione] | 267 |  |  |  |  |  |  |  |  |  |  |  | 
O=C(c1ccc2nc[nH]c(=O)c2c1)c1ncc2ccccn12 [compound 3, 6-(Imidazo[1,5-a]pyridin-3-ylcarbonyl)quinazolin-4(3H)-one] | 289 |  |  |  |  |  |  |  |  |  |  |  | 
CCCn1c(=O)[nH]c2ccc(C(=O)c3ncc4ccc(C(=O)O)cn34)cc2c1=O [compound 8, 3-[(2,4-Dioxo-3-propyl-1,2,3,4-tetrahydroquinazolin-6-yl)carbonyl]imidazo[1,5-a]pyridine-6-carboxylic acid] | 384 |  |  |  |  |  |  |  |  |  |  |  | 
CCCn1c(=O)[nH]c2ccc(C(=O)c3nc(NS(C)(=O)=O)c4ccccn34)cc2c1=O [compound 13, N-{3-[(2,4-dioxo-3-propyl-1,2,3,4-tetrahydroquinazolin-6-yl)carbonyl]imidazo[1,5-a]pyridin-1-yl}methanesulphonamide] | 334 |  |  |  |  |  |  |  |  |  |  |  | 
CCCn1c(=O)[nH]c2ccc(C(=O)c3nc(-c4cccc(C(N)=O)c4)c4ccccn34)cc2c1=O [compound 29, 3-{3[(2,4-Dioxo-3-propyl-1,2,3,4-tetrahydroquinazolin-6-yl)carbonyl]imidazo[1,5-a]pyridin-1-yl}benzamide] |  | 3 | 3 | 8 | 17 | -4 | 8 | 24 | 6 | 9 | 45 | 71 | 
CCCn1c(C)nc2ccc(C(=O)c3nc(-c4cccc(C(N)=O)c4)c4ccccn34)cc2c1=O [compound 55, 3-{3-[(2-Methyl-4-oxo-3-propyl-3,4-dihydroquinazolin-6-yl)carbonyl]imidazo[1,5-a]pyridin-1-yl}benzamide] |  | 5 | 5 | 6 | 6 | 11 | 17 | 57 | 3 | -2 | 29 | 47 | 
Cn1c(=O)n(Cc2ccc(F)cc2)c(=O)c2cc(C(=O)c3nc(-c4cccnc4)c4ccccn34)ccc21 [compound 112, 3-(4-Fluorobenzyl)-1-methyl-6-[(1-pyridin-3-ylimidazo[1,5-a]pyridin-3-yl)carbonyl]quinazoline-2,4(1H, 3H)-dione] |  | 4 | 4 | 16 | 11 | -3 | 51 | 88 | 8 | 18 | 61 | 84 | 
CN(C)CCNC(=O)c1cccc(-c2nc(C(=O)c3ccc4c(c3)c(=O)n(Cc3ccc(F)cc3)c(=O)n4C)n3ccccc23)c1.Cl [compound 116, N-[2-(dimethylamino)ethyl]-3-(3-{[3-(4-fluorobenzyl)-1-methyl-2,4-dioxo-1,2,3,4-tetrahydroquinazolin-6-yl]carbonyl}imidazo[1,5-a]pyridin-1-yl)benzamide hydrochloride] | 247 | 2 | 2 | 2 | 3 | 6 | 9 | 95 | -1 | -3 | 22 | 83 | 
Cc1ccc(Cn2c(=O)c3cc(C(=O)c4nc(-c5cccc(C(=O)[O-])c5)c5ccccn45)ccc3n(C)c2=O)s1.[Na+] [compound 291] |  |  |  |  |  |  |  |  |  |  |  |  | Cytotoxicity (% of permeable cells) ([4]; 0.01 μM): 2%; Cytotoxicity (% of permeable cells) ([4]; 0.1 μM): 2%; Cytotoxicity (% of permeable cells) ([4]; 1 μM): 2%; Cytotoxicity (% of permeable cells) ([4]; 10 μM): 4%; Inhibition of the amount of intracellular ATP (%) ([2]; 0.1 μM): 8%; Inhibition of the amount of intracellular ATP (%) ([2]; 1 μM): 27%; Inhibition of the amount of intracellular ATP (%) ([2]; 10 μM): 71%; Inhibition of proliferation (%) ([3]; 0.01 μM): 1%; Inhibition of proliferation (%) ([3]; 0.1 μM): 5%; Inhibition of proliferation (%) ([3]; 1 μM): 40%; Inhibition of proliferation (%) ([3]; 10 μM): 81%
